The record followed here is the SangsterLogP compilation.

As usually defined, the logP is a log measure of how a compound divides between an organic and an aqueous phase. A higher logP goes with a more lipophilic compound. Broadly, the logD is lipophilicity at a set pH, counting ionised and neutral species. Read a low logD as a more hydrophilic compound.

Structures are written as SMILES.

Test in one data set: not given
Settings: not given
Consider `CC1CCCc2nccc(=O)n21` (stereo not given), for which the logP stood at 0.37.

`O=c1ccnc2n1CCCC2` showed a logP of 0.13.

In turn, `O=c1ccnc2ccccn12` gave a logP of 0.3.

As to `CCc1cnc2cccc(C)n2c1=O`, the logP was 1.58.

The nature of a further data set: method code SF-AS, from DOI: 10.1016/s0021-9673(01)88398-9. The following applies: pH 5.0.
For the molecule `CCc1c(C)nc2n(c1=O)C(C)CCC2` (stereo not given), the logD came to 1.43.

`CCCc1c(C)nc2cccc(C)n2c1=O`: the logD turned out to be 2.22.

With `CCc1c(C)nc2cccc(C)n2c1=O`, the logD was 1.86.

For `Cc1cccc2nccc(=O)n12`, the logD is 0.74.

Consider `Cc1cnc2cccc(C)n2c1=O`, for which the logD is 1.27.

Consider `Cc1cc(=O)n2c(n1)CCCC2C` (stereo not given), for which the logD turned out to be 0.67.
